From patent US20230167058A1, “GPX4 COMPOUNDS AND COMPOSITIONS AND METHODS OF TREATMENT USING SAME” (THE TRUSTEES OF COLUMBIA UNIVERSITY IN THE CITY OF NEW YORK, priority 2020, published 2023) come the findings set out here.

Structures are written as SMILES. Entries after “also recorded” stand apart in the source; their conditions may differ.

Assay [1] deals with T1, GPX4^U46C (Homo sapiens, UniProt P36969, U73C).
T1 construct: His6 (N, cleaved yes); made in house; host or cells: E. coli BL21-Gold (DE3), M9 minimal medium with 15NH4Cl
T1 sequence (P36969 33-197 U73C): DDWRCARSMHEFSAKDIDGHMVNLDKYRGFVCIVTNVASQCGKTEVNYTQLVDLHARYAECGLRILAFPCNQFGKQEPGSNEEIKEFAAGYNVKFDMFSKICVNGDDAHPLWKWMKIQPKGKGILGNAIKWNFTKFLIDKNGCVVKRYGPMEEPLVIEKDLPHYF
The experiment in a line: Intact protein MALDI MS analysis, GPX4^U46C. It is filed as binding. The settings on record: protein preincubated with excess inhibitor. The method, then:
GPX4^U46C or GPX4^AllCys(−)-A46C protein was pre-incubated with DMSO control or the inhibitor to be tested prior to MALDI MS analysis: 50 μM GPX4 protein was incubated with 500 μM inhibitors in FPLC buffer (100 mM Tris pH 8.0, 300 mM NaCl, and 3 mM TCEP) with 5% DMSO at RT for 1 hour before transferring to 4° C. overnight.
1 μl of the ligand-free protein (pre-incubated with DMSO) or protein-inhibitor complex (pre-incubated with the inhibitor to be tested) was mixed with 9 μl of 10 mg/ml sinapinic acid in the matrix solution (70:30 water/acetonitrile, with 0.1% TFA). 1.0 μl of the final mix was deposited onto the target carrier and allowed to air dry. MALDI spectrum was recorded using Bruker ultrafleXtreme MALDI-TOF instrument. The range of m/z detection and suppression was adjusted to accommodate the molecular weight of target protein. 2000 Hz and 50% intensity was applied for the laser setting. For each sample, five cumulative spectra were collected and the sum was recorded for analysis. All MALDI spectra of protein-inhibitor complex were compared with ligand-free protein to determine the mass shift. Mass shifts were aligned with the mass of potential staying group of each inhibitor to conclude covalent binding.

For assay [2], the target named is T1, GPX4^U46C. The experiment in a line: 1H,15N-HSQC-NMR of 15N-labeled GPX4^U46C. It is filed as binding. How it is done: Uniformly ^15N-labeled GPX4^U46C protein with N-terminal His6 tag was prepared. The GPX4^U46C construct was expressed in E. coli BL21-Gold (DE3) cells (Stratagene) growing at 37° C. in M9 minimal medium supplemented with […] ampicillin, 2 mM MgSO4, […] CaCl2, 1× trace metals, 1×RPMI 1640 vitamin stock (Sigma-Aldrich, #R7256), […] biotin, […] thiamine hydrochloride, 4 g/L glucose, and 3 g/L ^15NH4Cl as the sole nitrogen source. The following induction, lysis, and protein purification was the same as for the non-isotope-labeled His-tagged GPX4^U46C described above, except the N-terminal His6 tag was removed by adding 5 U/mg thrombin before FPLC purification. The thrombin reaction was after a buffer exchange to remove imidazole, which otherwise would inhibit thrombin, and was allowed to proceed overnight at 4° C.
Then the protein solution was concentrated to 50 μM before testing. For HSQC of GPX4 with other inhibitors, 50 μM ^15N-labeled GPX4 was preincubated with 800 μM inhibitor to be tested for […] at room temperature in buffer (100 mM MES, 5 mM TCEP, pH 6.5). D20 (10%) was then added for the field frequency lock. The ^1H-^15N HSQC spectra were collected on Bruker Avance III 500 Ascend (500 MHz) spectrometers (Columbia University) at 298K. The ^1H carrier frequency was positioned at the water resonance. The ^15N carrier frequency was positioned at 115 ppm. The spectral width in the ^1H dimension was 7,500 Hz and the width in the ^15N dimension was 1,824.6 Hz. Suppression of water signal was accomplished using the WATERGATE sequence. Heteronuclear decoupling was accomplished using GARP decoupling scheme.

Assay [3] relates to GPX4 protein level in HT-1080 cells. The experiment in a line: Western blot GPX4 degradation study in HT-1080. Particulars: 1 μM RSL3, 1 μM ML162, 10 μM FIN56, 10 h, with 100 μM α-tocopherol. It counts as cell-based, human. A digest of the protocol: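 HT-1080 cells were co-treated 10 h with 100 μM α-tocopherol plus compound (RSL3 or ML162 at 1 μM; IKE or FIN56 at 10 μM) or vehicle. RIPA lysates were Western blotted for GPX4, with actin and GAPDH as loading references. Blots were quantified by infrared imaging.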

Regarding `COc1cccc2[nH]c(C(=O)n3ccnc3)cc12` [LOC1886], the “covalent binding to GPX4^U46C by intact protein MALDI MS” value in assay [1] is recorded as “covalently bound”. Moreover, the “binding mode by HSQC NMR” value in assay [2] is “non-covalently binds to the RSL3-binding site; also recorded: strongly interacted with the cys66 binding site”. Besides, in assay [2] (Table 1), the Binding site result is listed as “Allosteric Site 1” and the HSQC assay entry was “positive”.

For `COC(=O)c1ccc([C@@H]2c3[nH]c4ccccc4c3C[C@@H](C(=O)OC)N2C(=O)CCl)cc1` [RSL3, (1S, 3R)-RSL3], the “covalent binding to GPX4^U46C by intact protein MALDI MS” value in assay [1] is 1:1 covalent binding. Besides, in assay [3], the “degradation of endogenous GPX4” value is “significantly promoted degradation of GPX4”. Besides, the “binding mode by HSQC NMR” value in assay [2] was “global conformational change induced by binding of RSL3 to cys66”.
